Results on four molecules are retold here after ChEMBL document CHEMBL1201862, “PubChem BioAssay data set” (2004).

Molecules are shown by their SMILES.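 Grown in 96-well plates, cells were treated for 48 hours with each compound at five concentrations. Insufficient inhibition: endpoint recorded as highest concentration tested. Abbreviation: GI50, concentration required for 50% inhibition of growth.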 The source made the active and inactive calls. Rule as the data show it: active = GI50 up to about 1.1 µM and inactive = higher.

Some test systems named below: CCRF-CEM; DU-145; EKVX; HCC 2998; HCT-15; HOP-92; M14; MCF7; MDA-MB-231; MDA-MB-435; OVCAR-4; OVCAR-8; RXF 393; SF-268; SF-295; SK-MEL-28; SN12C; SR; TK-10; UO-31.
What all share (test): DTP human tumour cell line panel, 48 h

One may read the GI50 as the concentration that inhibits growth by half. As for `CC(C)=CCc1ccc2[nH]c3c(c2c1)C(=O)C(=O)C(C)=C3C(O)C(C)O` (stereo not drawn), the GI50 in the assay on CCRF-CEM is 1.55 µM (inactive); in the assay with DU-145, 10.5 µM (inactive); in the assay on EKVX, 16.1 µM (inactive); with HCC 2998 it was 6.38 µM (inactive); with HCT-15, 2.32 µM; with HOP-92 it was 1.51 µM (inactive). For the same molecule, the GI50 in the assay with M14 was 1.91 µM (inactive); in the assay on MCF7 it was 1.63 µM (inactive); with MDA-MB-231, 3.54 µM (inactive); in the assay with MDA-MB-435, 2.85 µM (inactive); in the assay on OVCAR-4 it was 3.72 µM (inactive); in the assay on OVCAR-8, 2.13 µM (inactive). Moreover, the GI50 with RXF 393 is 2.17 µM (inactive); with SF-268, 12.9 µM (inactive); in the assay on SF-295 it was 12.2 µM (inactive); in the assay with SK-MEL-28 it was 7.19 µM (inactive); with SN12C, 8.55 µM (inactive); with SR it was 2.45 µM (inactive). For the same molecule, the GI50 in the assay on TK-10 is 2.52 µM (inactive); with UO-31, 1.55 µM (inactive).

As for `C=C(C)C(=O)O[C@H]1[C@H]2[C@H](OC(=O)[C@H]2C)[C@H](O)[C@@H](C)[C@@H]2C=CC(=O)[C@]21C`, the GI50 in the assay on CCRF-CEM was 2.07 µM (inactive); in the assay on DU-145 it was 3.9 µM (inactive); with EKVX it was 2.86 µM (inactive); with HCC 2998 it was 2.45 µM (inactive); with HCT-15 it was 2.04 µM; in the assay on HOP-92, 3.66 µM (inactive). Further, the GI50 in the assay on M14 is 5.97 µM (inactive); with MCF7, 4.19 µM (inactive); with MDA-MB-231, 4.54 µM (inactive); in the assay with MDA-MB-435, 2.56 µM (inactive); with OVCAR-4, 5.64 µM (inactive); in the assay on OVCAR-8 it was 1.94 µM (inactive). Also, the GI50 in the assay with RXF 393 is 1.22 µM (inactive); in the assay with SF-268, 3.4 µM (inactive); in the assay with SF-295 it was 4.63 µM (inactive); in the assay with SK-MEL-28 it was 2.26 µM (inactive); in the assay on SN12C, 2.08 µM (inactive); with SR, 1.73 µM (inactive). In addition, the GI50 is 2.82 µM (inactive) with TK-10 and 3.94 µM (inactive) in the assay on UO-31.

For the molecule `CSC1=C(C(=O)N(COCC[Si](C)(C)C)c2ccccc2Br)CCC(C(C)(C)C)C1` (stereo not drawn), the GI50 in the assay on CCRF-CEM is 22.7 µM (inactive); in the assay on DU-145 it was 22.4 µM (inactive); in the assay on EKVX, 13.8 µM (inactive); in the assay on HCC 2998, 13.4 µM (inactive); with HCT-15, 11.7 µM; in the assay on HOP-92 it was 12.9 µM (inactive). Further, the GI50 in the assay on M14 was 13.1 µM (inactive); in the assay on MCF7, 10.6 µM (inactive); with MDA-MB-231, 10.3 µM (inactive); in the assay with MDA-MB-435, 17.9 µM (inactive); in the assay with OVCAR-4 it was 10.5 µM (inactive); in the assay on OVCAR-8, 17.8 µM (inactive). The GI50 is 9.79 µM (inactive) in the assay with RXF 393; 9.64 µM (inactive) in the assay with SF-295; 25.8 µM (inactive) in the assay with SK-MEL-28; 14.1 µM (inactive) with SN12C; 3.42 µM (inactive) in the assay with SR; 23.5 µM (inactive) with TK-10. Moreover, the GI50 in the assay on UO-31 is 12.6 µM (inactive).

`CCNC1=C(NC(=O)c2ccc(OC)cc2)C(=O)c2ccccc2C1=O`: the GI50 was 48.3 µM (inactive) in the assay on CCRF-CEM; > 100 µM (inactive) in the assay with DU-145; > 100 µM (inactive) with EKVX; 37.5 µM (inactive) in the assay with HCC 2998; 48.4 µM in the assay on HCT-15; > 100 µM (inactive) in the assay on HOP-92. Further, the GI50 is 21.6 µM (inactive) in the assay on M14; 51.8 µM (inactive) in the assay with MCF7; 92.9 µM (inactive) in the assay on MDA-MB-231; 16.8 µM (inactive) in the assay with MDA-MB-435; 34.7 µM (inactive) with OVCAR-4; 24.6 µM (inactive) with OVCAR-8. Moreover, the GI50 with RXF 393 is 28.5 µM (inactive); with SF-268 it was > 100 µM (inactive); in the assay with SF-295 it was > 100 µM (inactive); in the assay with SK-MEL-28, > 100 µM (inactive); in the assay with SN12C it was 43.6 µM (inactive); in the assay on SR it was 56.5 µM (inactive). Besides, the GI50 in the assay on TK-10 was > 100 µM (inactive).
